Measured values taken from ChEMBL document CHEMBL3046561, “Feeding deterrents from Dictamnus dasycarpus Turcz against two stored-product insects” (J Agric Food Chem, 2002).

Legend:
Tribolium castaneum [1] = assay: Antifeedant activity against larvae of Tribolium castaneum (red flour beetle) assessed as mortality at 10 ppm after 3 days relative to control; type: functional; conditions: 72 h
Sitophilus zeamais [2] = assay: Antifeedant activity against adult of Sitophilus zeamais assessed as efficiency of conversion of ingested food at 3 ppm after 3 days relative to control; type: functional
Tribolium castaneum [3] = assay: Antifeedant activity against larvae of Tribolium castaneum (red flour beetle) assessed as efficiency of conversion of ingested food at 10 ppm after 3 days relative to control; type: functional, Instar larval stage
Tribolium castaneum [4] = assay: Antifeedant activity against larvae of Tribolium castaneum (red flour beetle) assessed as feeding deterrence index at 10 ppm after 3 days relative to control; type: functional
Sitophilus zeamais [5] = assay: Antifeedant activity against adult of Sitophilus zeamais assessed as relative consumption rate at 3 ppm after 3 days relative to control; type: functional
Tribolium castaneum [6] = assay: Antifeedant activity against larvae of Tribolium castaneum (red flour beetle) assessed as efficiency of conversion of ingested food at 3 ppm after 3 days relative to control; type: functional
Tribolium castaneum [7] = assay: Antifeedant activity against adult of Tribolium castaneum (red flour beetle) assessed as efficiency of conversion of ingested food at 10 ppm after 3 days relative to control; type: functional
Tribolium castaneum [8] = assay: Antifeedant activity against larvae of Tribolium castaneum (red flour beetle) assessed as relative growth rate at 3 ppm after 3 days relative to control; type: functional
Sitophilus zeamais [9] = assay: Antifeedant activity against adult of Sitophilus zeamais assessed as relative growth rate at 10 ppm after 3 days relative to control; type: functional
Tribolium castaneum [10] = assay: Antifeedant activity against adult of Tribolium castaneum (red flour beetle) assessed as mortality at 10 ppm after 3 days relative to control; type: functional; conditions: 72 h
Sitophilus zeamais [11] = assay: Antifeedant activity against adult of Sitophilus zeamais assessed as efficiency of conversion of ingested food at 100 ppm after 3 days relative to control; type: functional
Tribolium castaneum [12] = assay: Antifeedant activity against larvae of Tribolium castaneum (red flour beetle) assessed as relative growth rate at 10 ppm after 3 days relative to control; type: functional
Sitophilus zeamais [13] = assay: Antifeedant activity against adult of Sitophilus zeamais assessed as relative growth rate at 30 ppm after 3 days relative to control; type: functional
Tribolium castaneum [14] = assay: Antifeedant activity against larvae of Tribolium castaneum (red flour beetle) assessed as relative consumption rate at 100 ppm after 3 days relative to control; type: functional
Tribolium castaneum [15] = assay: Antifeedant activity against adult of Tribolium castaneum (red flour beetle) assessed as mortality at 100 ppm after 3 days relative to control; type: functional; conditions: 72 h
Tribolium castaneum [16] = assay: Antifeedant activity against adult of Tribolium castaneum (red flour beetle) assessed as relative consumption rate at 30 ppm after 3 days relative to control; type: functional
Tribolium castaneum [17] = assay: Antifeedant activity against larvae of Tribolium castaneum (red flour beetle) assessed as feeding deterrence index at 3 ppm after 3 days relative to control; type: functional
Tribolium castaneum [18] = assay: Antifeedant activity against larvae of Tribolium castaneum (red flour beetle) assessed as feeding deterrence index at 100 ppm after 3 days relative to control; type: functional
Tribolium castaneum [19] = assay: Antifeedant activity against adult of Tribolium castaneum (red flour beetle) assessed as efficiency of conversion of ingested food at 100 ppm after 3 days relative to control; type: functional
Sitophilus zeamais [20] = assay: Antifeedant activity against adult of Sitophilus zeamais assessed as relative consumption rate at 100 ppm after 3 days relative to control; type: functional
Tribolium castaneum [21] = assay: Antifeedant activity against adult of Tribolium castaneum (red flour beetle) assessed as mortality at 30 ppm after 3 days relative to control; type: functional; conditions: 72 h
Tribolium castaneum [22] = assay: Antifeedant activity against adult of Tribolium castaneum (red flour beetle) assessed as mortality at 3 ppm after 3 days relative to control; type: functional; conditions: 72 h
Tribolium castaneum [23] = assay: Antifeedant activity against larvae of Tribolium castaneum (red flour beetle) assessed as feeding deterrence index at 300 ppm after 3 days relative to control; type: functional
Tribolium castaneum [24] = assay: Antifeedant activity against adult of Tribolium castaneum (red flour beetle) assessed as efficiency of conversion of ingested food at 3 ppm after 3 days relative to control; type: functional
Sitophilus zeamais [25] = assay: Antifeedant activity against adult of Sitophilus zeamais assessed as relative consumption rate at 30 ppm after 3 days relative to control; type: functional
Tribolium castaneum [26] = assay: Antifeedant activity against larvae of Tribolium castaneum (red flour beetle) assessed as relative growth rate at 300 ppm after 3 days relative to control; type: functional
Tribolium castaneum [27] = assay: Antifeedant activity against adult of Tribolium castaneum (red flour beetle) assessed as relative growth rate at 10 ppm after 3 days relative to control; type: functional
Sitophilus zeamais [28] = assay: Antifeedant activity against adult of Sitophilus zeamais assessed as feeding deterrence index at 30 ppm after 3 days relative to control; type: functional
Tribolium castaneum [29] = assay: Antifeedant activity against larvae of Tribolium castaneum (red flour beetle) assessed as relative growth rate at 30 ppm after 3 days relative to control; type: functional
Sitophilus zeamais [30] = assay: Antifeedant activity against adult of Sitophilus zeamais assessed as mortality at 10 ppm after 3 days relative to control; type: functional; conditions: 72 h
Tribolium castaneum [31] = assay: Antifeedant activity against adult of Tribolium castaneum (red flour beetle) assessed as feeding deterrence index at 10 ppm after 3 days relative to control; type: functional
Sitophilus zeamais [32] = assay: Antifeedant activity against adult of Sitophilus zeamais assessed as feeding deterrence index at 3 ppm after 3 days relative to control; type: functional
Tribolium castaneum [33] = assay: Antifeedant activity against larvae of Tribolium castaneum (red flour beetle) assessed as mortality at 300 ppm after 3 days relative to control; type: functional; conditions: 72 h
Sitophilus zeamais [34] = assay: Antifeedant activity against adult of Sitophilus zeamais assessed as mortality at 300 ppm after 3 days relative to control; type: functional; conditions: 72 h
Sitophilus zeamais [35] = assay: Antifeedant activity against adult of Sitophilus zeamais assessed as mortality at 3 ppm after 3 days relative to control; type: functional; conditions: 72 h
Tribolium castaneum [36] = assay: Antifeedant activity against adult of Tribolium castaneum (red flour beetle) assessed as relative growth rate at 300 ppm after 3 days relative to control; type: functional
Sitophilus zeamais [37] = assay: Antifeedant activity against adult of Sitophilus zeamais assessed as feeding deterrence index at 10 ppm after 3 days relative to control; type: functional
Tribolium castaneum [38] = assay: Antifeedant activity against adult of Tribolium castaneum (red flour beetle) assessed as relative growth rate at 100 ppm after 3 days relative to control; type: functional
Tribolium castaneum [39] = assay: Antifeedant activity against adult of Tribolium castaneum (red flour beetle) assessed as feeding deterrence index at 3 ppm after 3 days relative to control; type: functional
Tribolium castaneum [40] = assay: Antifeedant activity against adult of Tribolium castaneum (red flour beetle) assessed as mortality at 300 ppm after 3 days relative to control; type: functional; conditions: 72 h
Sitophilus zeamais [41] = assay: Antifeedant activity against adult of Sitophilus zeamais assessed as relative consumption rate at 300 ppm after 3 days relative to control; type: functional
Tribolium castaneum [42] = assay: Antifeedant activity against larvae of Tribolium castaneum (red flour beetle) assessed as relative consumption rate at 10 ppm after 3 days relative to control; type: functional
Tribolium castaneum [43] = assay: Antifeedant activity against larvae of Tribolium castaneum (red flour beetle) assessed as feeding deterrence index at 30 ppm after 3 days relative to control; type: functional
Sitophilus zeamais [44] = assay: Antifeedant activity against adult of Sitophilus zeamais assessed as feeding deterrence index at 100 ppm after 3 days relative to control; type: functional
Tribolium castaneum [45] = assay: Antifeedant activity against adult of Tribolium castaneum (red flour beetle) assessed as relative consumption rate at 10 ppm after 3 days relative to control; type: functional
Tribolium castaneum [46] = assay: Antifeedant activity against adult of Tribolium castaneum (red flour beetle) assessed as relative consumption rate at 100 ppm after 3 days relative to control; type: functional
Sitophilus zeamais [47] = assay: Antifeedant activity against adult of Sitophilus zeamais assessed as relative consumption rate at 10 ppm after 3 days relative to control; type: functional
Sitophilus zeamais [48] = assay: Antifeedant activity against adult of Sitophilus zeamais assessed as mortality at 30 ppm after 3 days relative to control; type: functional; conditions: 72 h

Structure (SMILES): COc1c2ccccc2nc2occc12 [DICTAMNINE]
- mortality at 10 ppm (Tribolium castaneum [1]): 0%
- Activity (Sitophilus zeamais [2]): 9.1%
- Activity (Tribolium castaneum [3]): 18.07%
- FDI (Tribolium castaneum [4]): 21.77%
- Activity (Sitophilus zeamais [5]): 126.78 µg/mg/day
- Activity (Tribolium castaneum [6]): 19.8%
- Activity (Tribolium castaneum [7]): 19.91%
- Activity (Tribolium castaneum [8]): 52.88 µg/mg/day
- Activity (Sitophilus zeamais [9]): 14.32 µg/mg/day
- mortality at 10 ppm (Tribolium castaneum [10]): 0%
- Activity (Sitophilus zeamais [11]): 9.73%
- Activity (Tribolium castaneum [12]): 47.56 µg/mg/day
- Activity (Sitophilus zeamais [13]): 12.08 µg/mg/day
- Activity (Tribolium castaneum [14]): 123.74 µg/mg/day
- mortality at 100 ppm (Tribolium castaneum [15]): 0%
- Activity (Tribolium castaneum [16]): 101.27 µg/mg/day
- FDI (Tribolium castaneum [17]): 4.59%
- FDI (Tribolium castaneum [18]): 64.42%
- Activity (Tribolium castaneum [19]): 17.88%
- Activity (Sitophilus zeamais [20]): 52.65 µg/mg/day
- mortality at 30 ppm (Tribolium castaneum [21]): 0%
- mortality at 3 ppm (Tribolium castaneum [22]): 0%
- FDI (Tribolium castaneum [23]): 82.21%
- Activity (Tribolium castaneum [24]): 21.25%
- Activity (Sitophilus zeamais [25]): 86.75 µg/mg/day
- Activity (Tribolium castaneum [26]): 7.08 µg/mg/day
- Activity (Tribolium castaneum [27]): 27.3 µg/mg/day
- FDI (Sitophilus zeamais [28]): 30.99%
- Activity (Tribolium castaneum [29]): 31.75 µg/mg/day
- mortality at 10 ppm (Sitophilus zeamais [30]): 0%
- FDI (Tribolium castaneum [31]): 17.06%
- FDI (Sitophilus zeamais [32]): 9.69%
- mortality at 300 ppm (Tribolium castaneum [33]): 4%
- mortality at 300 ppm (Sitophilus zeamais [34]): 0%
- mortality at 3 ppm (Sitophilus zeamais [35]): 0%
- Activity (Tribolium castaneum [36]): 6.45 µg/mg/day
- FDI (Sitophilus zeamais [37]): 17.87%
- Activity (Tribolium castaneum [38]): 13.49 µg/mg/day
- FDI (Tribolium castaneum [39]): 7.31%
- mortality at 300 ppm (Tribolium castaneum [40]): 2%
- Activity (Sitophilus zeamais [41]): 35.13 µg/mg/day
- Activity (Tribolium castaneum [42]): 213.17 µg/mg/day
- FDI (Tribolium castaneum [43]): 38.52%
- FDI (Sitophilus zeamais [44]): 51.77%
- Activity (Tribolium castaneum [45]): 129.71 µg/mg/day
- Activity (Tribolium castaneum [46]): 59.8 µg/mg/day
- Activity (Sitophilus zeamais [47]): 110.95 µg/mg/day
- mortality at 30 ppm (Sitophilus zeamais [48]): 0%
